Experimental data taken from US11180474B2 (BRISTOL-MYERS SQUIBB COMPANY, priority 2016, dated 2021).

Tests used:
human TLR8 = molecular target: T1, human TLR8 (Homo sapiens, UniProt Q9NR97); assay: TLR8 inhibition reporter assay (HEK-Blue cells, SEAP reporter, R848 stimulation); assay type: cell-based; conditions: HEK-Blue cells overexpressing human TLR8, R848 15.9 μM
T1 construct: host or cells: HEK-Blue cells
T1 sequence (Q9NR97 27-1041): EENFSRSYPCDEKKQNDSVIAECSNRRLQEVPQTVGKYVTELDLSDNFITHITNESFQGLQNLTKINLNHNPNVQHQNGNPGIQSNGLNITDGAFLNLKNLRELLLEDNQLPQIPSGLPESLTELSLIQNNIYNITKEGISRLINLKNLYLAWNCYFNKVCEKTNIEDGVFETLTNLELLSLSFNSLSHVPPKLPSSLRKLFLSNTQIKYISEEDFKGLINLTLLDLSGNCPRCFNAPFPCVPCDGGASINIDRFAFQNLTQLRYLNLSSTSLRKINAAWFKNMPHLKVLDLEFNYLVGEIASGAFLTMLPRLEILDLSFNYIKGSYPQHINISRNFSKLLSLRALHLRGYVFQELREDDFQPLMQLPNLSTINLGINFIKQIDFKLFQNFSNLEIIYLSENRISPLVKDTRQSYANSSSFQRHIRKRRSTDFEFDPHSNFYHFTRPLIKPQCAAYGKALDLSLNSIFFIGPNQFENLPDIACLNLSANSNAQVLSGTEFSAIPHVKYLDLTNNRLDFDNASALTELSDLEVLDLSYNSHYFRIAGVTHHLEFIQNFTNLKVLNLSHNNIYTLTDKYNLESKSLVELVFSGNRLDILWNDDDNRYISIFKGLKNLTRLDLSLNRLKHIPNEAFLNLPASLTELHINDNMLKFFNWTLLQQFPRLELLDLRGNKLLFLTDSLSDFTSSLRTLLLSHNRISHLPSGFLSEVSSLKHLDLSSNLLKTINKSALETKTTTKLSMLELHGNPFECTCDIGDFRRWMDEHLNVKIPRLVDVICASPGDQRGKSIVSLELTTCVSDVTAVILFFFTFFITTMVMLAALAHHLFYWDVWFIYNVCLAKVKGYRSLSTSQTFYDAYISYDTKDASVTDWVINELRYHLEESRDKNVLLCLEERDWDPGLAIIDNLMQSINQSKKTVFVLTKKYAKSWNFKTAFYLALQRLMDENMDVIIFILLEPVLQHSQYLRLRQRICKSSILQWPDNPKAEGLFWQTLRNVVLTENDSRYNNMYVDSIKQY
Procedure: TLR7/8/9 Inhibition Reporter Assays
Briefly, cells are seeded into Greiner 384 well plates (15000 cells per well for TLR7, 20,000 for TLR8 and 25,000 for TLR9) and then treated with test compounds in DMSO to yield a final dose response concentration range of 0.05 nM-50 μM. […] After a 22 hour incubation at 37° C., 5% CO2, SEAP levels are determined with the addition of HEK-Blue™ Detection reagent (Invivogen), a cell culture medium that allows for detection of SEAP, according to manufacturer's specifications. The percent inhibition is determined as the % reduction in the HEK-Blue signal present in wells treated with agonist plus DMSO alone compared to wells treated with a known inhibitor.

human TLR9 = molecular target: T2, human TLR9 (Homo sapiens, UniProt Q9NR96); assay: TLR9 inhibition reporter assay (HEK-Blue cells, SEAP reporter, ODN2006 stimulation); assay type: cell-based; conditions: HEK-Blue cells overexpressing human TLR9, ODN2006 5 nM
T2 construct: host or cells: HEK-Blue cells
T2 sequence (Q9NR96 26-1032): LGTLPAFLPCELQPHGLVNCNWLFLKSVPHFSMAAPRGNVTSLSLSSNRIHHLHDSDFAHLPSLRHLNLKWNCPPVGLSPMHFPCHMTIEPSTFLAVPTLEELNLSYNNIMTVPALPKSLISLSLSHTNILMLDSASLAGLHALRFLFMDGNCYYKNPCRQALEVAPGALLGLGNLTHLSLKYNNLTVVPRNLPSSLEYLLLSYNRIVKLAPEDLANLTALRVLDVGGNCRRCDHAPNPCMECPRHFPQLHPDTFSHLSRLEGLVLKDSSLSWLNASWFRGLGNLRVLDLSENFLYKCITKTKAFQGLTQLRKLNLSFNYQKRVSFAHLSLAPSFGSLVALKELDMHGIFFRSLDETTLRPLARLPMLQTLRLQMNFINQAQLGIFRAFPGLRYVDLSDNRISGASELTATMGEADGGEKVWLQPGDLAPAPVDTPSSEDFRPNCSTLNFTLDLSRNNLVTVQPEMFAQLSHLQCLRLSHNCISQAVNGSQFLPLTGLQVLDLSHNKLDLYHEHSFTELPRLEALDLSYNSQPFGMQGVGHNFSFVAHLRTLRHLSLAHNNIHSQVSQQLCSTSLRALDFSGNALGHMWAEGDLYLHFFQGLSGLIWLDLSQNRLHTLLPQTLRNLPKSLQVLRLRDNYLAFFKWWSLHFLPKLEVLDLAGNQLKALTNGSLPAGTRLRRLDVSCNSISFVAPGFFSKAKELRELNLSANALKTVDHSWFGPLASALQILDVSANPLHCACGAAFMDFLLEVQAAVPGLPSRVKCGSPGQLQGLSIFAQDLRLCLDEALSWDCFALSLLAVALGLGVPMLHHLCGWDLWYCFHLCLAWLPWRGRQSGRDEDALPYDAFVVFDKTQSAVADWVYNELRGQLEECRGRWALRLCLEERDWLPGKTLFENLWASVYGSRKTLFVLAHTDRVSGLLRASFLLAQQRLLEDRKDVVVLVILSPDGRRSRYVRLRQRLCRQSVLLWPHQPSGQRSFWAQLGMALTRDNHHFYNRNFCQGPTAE
Procedure, shortened: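 Compound treatment: 30 min, RT, 0.05 nM–50 μM final. Agonist: TLR7 gardiquimod 7.5 μM; TLR8 R848 15.9 μM; TLR9 ODN2006 5 nM. Incubation 22 h, 37 °C, 5% CO2. Readout SEAP, HEK-Blue Detection.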

For `CCc1c(-c2ccc(OC)c(OC)c2)[nH]c2ccc(C3CCN(C4CCN(Cc5c(C)noc5C)CC4)CC3)cc12` [Example 138, 4-((4-(2-(3,4-dimethoxyphenyl)-3-ethyl-1H-indol-5-yl)-[1,4′-bipiperidin]-1′-yl)methyl)-3,5-dimethylisoxazole], the IC50 (human TLR8) was 268 nM and the IC50 (human TLR9) was 1400 nM.
In the case of `CCc1c(-c2ccc(OC)c(OC)c2)[nH]c2ccc(C3CCN(C(=O)CN4CCCC(C(=O)O)C4)CC3)cc12` (racemic) [Example 176, 1-(2-(4-(2-(3,4-dimethoxyphenyl)-3-ethyl-1H-indol-5-yl)piperidin-1-yl)-2-oxoethyl)piperidine-3-carboxylic acid], the IC50 (human TLR8) is reported as 6550 nM and the IC50 (human TLR9) is reported as ≥ 50000 nM.
Work on `CCc1c(-c2ccc(OC)c(OC)c2)[nH]c2ccc(C3CCN(C4CCN(Cc5coc(C)n5)CC4)CC3)cc12` [Example 126, 4-((4-(2-(3,4-dimethoxyphenyl)-3-ethyl-1H-indol-5-yl)-[1,4′-bipiperidin]-1′-yl)methyl)-2-methyloxazole] yielded an IC50 (human TLR8) of 114 nM and an IC50 (human TLR9) of 481 nM.
`CCc1c(-c2ccc(OC)c(OC)c2)[nH]c2ccc(C3CCN(C(=O)CN(C)C)CC3)cc12` [Example 181, 1-(4-(2-(3,4-dimethoxyphenyl)-3-ethyl-1H-indol-5-yl)piperidin-1-yl)-2-(dimethylamino) ethanone] was tested, and the IC50 (human TLR8) was 66 nM and the IC50 (human TLR9) was 2270 nM.
`CCc1c(-c2ccc(OC)c(OC)c2)[nH]c2c(F)cc(C3CCN(C4CCN(CC(C)C)CC4)CC3)cc12` [Example 190, 2-(3,4-dimethoxyphenyl)-3-ethyl-7-fluoro-5-(1′-isobutyl-[1,4′-bipiperidin]-4-yl)-1H-indole] gave an IC50 (human TLR8) of 1760 nM and an IC50 (human TLR9) of 280 nM.
With `CCc1c(-c2ccc(OC)c(OC)c2)[nH]c2ccc(C3CCN(C4CCN(Cc5cc(C)nn5C)CC4)CC3)cc12` [Example 132, 2-(3,4-dimethoxyphenyl)-5-(1′-((1,3-dimethyl-1H-pyrazol-5-yl)methyl)-[1,4′-bipiperidin]-4-yl)-3-ethyl-1H-indole] the IC50 (human TLR8) was ≥ 50000 nM and the IC50 (human TLR9) was 695 nM.
In the case of `CCc1c(-c2ccc(OC)c(OC)c2)[nH]c2ccc(C3CCN(C4CCN(Cc5cc(C)n(C)n5)CC4)CC3)cc12` [Example 144, 2-(3,4-dimethoxyphenyl)-5-(1′-((1,5-dimethyl-1H-pyrazol-3-yl)methyl)-[1,4′-bipiperidin]-4-yl)-3-ethyl-1H-indole], the IC50 (human TLR8) is reported as 73 nM and the IC50 (human TLR9) is reported as 495 nM.
In the case of `COc1ccc(-c2[nH]c3ccc(C4CCN(C(=O)CNCCO)CC4)cc3c2C(C)C)cc1OC` [Example 212, 1-(4-(2-(3,4-dimethoxyphenyl)-3-isopropyl-1H-indol-5-yl)piperidin-1-yl)-2-((2-hydroxyethyl)amino)ethan-1-one], the IC50 (human TLR8) is reported as 20 nM and the IC50 (human TLR9) is reported as 1190 nM.
`COc1ccc(-c2[nH]c3cc(C)c(C4CCN(C5CCN(C(C)C)CC5)CC4)cc3c2C(C)C)cc1OC` [Example 206, 2-(3,4-dimethoxyphenyl)-3-isopropyl-5-(1′-isopropyl-[1,4′-bipiperidin]-4-yl)-6-methyl-1H-indole di trifluoroacetic acid] gave an IC50 (human TLR8) of 14500 nM and an IC50 (human TLR9) of 1000 nM.
`CCc1c(-c2ccc(OC)c(OC)c2)[nH]c2ccc(C3CCN(C4CCN(Cc5cc6ccccc6[nH]5)CC4)CC3)cc12` [Example 128, 5-(1′-((1H-indol-2-yl)methyl)-[1,4′-bipiperidin]-4-yl)-2-(3,4-dimethoxyphenyl)-3-ethyl-1H-indole] was tested, and the IC50 (human TLR8) was 629 nM and the IC50 (human TLR9) was 947 nM.
`CCc1c(-c2ccc(OC)c(OC)c2)[nH]c2ccc(C3CCN(C4CCN(Cc5ccc(-c6ccccc6)o5)CC4)CC3)cc12` [Example 143, 2-(3,4-dimethoxyphenyl)-3-ethyl-5-(1′-((5-phenylfuran-2-yl)methyl)-[1,4′-bipiperidin]-4-yl)-1H-indole] gave an IC50 (human TLR8) of 706 nM and an IC50 (human TLR9) of 730 nM.
`CCc1c(-c2ccc(OC)c(OC)c2)[nH]c2cc(OC)c(C3CCN(C4CCN(C(C)C)CC4)CC3)cc12` [Example 192, 2-(3,4-dimethoxyphenyl)-3-ethyl-5-(1′-isopropyl-[1,4′-bipiperidin]-4-yl)-6-methoxy-1H-indole] gave an IC50 (human TLR8) of 194 nM and an IC50 (human TLR9) of 260 nM.
Work on `CCc1c(-c2ccc(OC)c(OC)c2)[nH]c2ccc(C3CCN(C4CCN(Cc5cc(C)n[nH]5)CC4)CC3)cc12` [Example 131, 2-(3,4-dimethoxyphenyl)-3-ethyl-5-(1′-((3-methyl-1H-pyrazol-5-yl)methyl)-[1,4′-bipiperidin]-4-yl)-1H-indole] yielded an IC50 (human TLR8) of 56 nM and an IC50 (human TLR9) of 447 nM.
In the case of `COc1ccc(-c2[nH]c3ccc(C4CCN(C(=O)CNCC#N)CC4)cc3c2C(C)C)cc1OC` [Example 214, 2-((2-(4-(2-(3,4-dimethoxyphenyl)-3-isopropyl-1H-indol-5-yl)piperidin-1-yl)-2-oxoethyl)amino) acetonitrile], the IC50 (human TLR8) is reported as 256 nM and the IC50 (human TLR9) is reported as ≥ 50000 nM.
`CCc1c(-c2ccc(OC)c(OC)c2)[nH]c2ccc(C3CCN(C4CCN(Cc5ccc(-c6ccccc6)s5)CC4)CC3)cc12` [Example 141, 2-(3,4-dimethoxyphenyl)-3-ethyl-5-(1′-((5-phenylthiophen-2-yl)methyl)-[1,4′-bipiperidin]-4-yl)-1H-indole] was tested, and the IC50 (human TLR8) was 9780 nM and the IC50 (human TLR9) was ≥ 50000 nM.
In the case of `CCOC(=O)c1c(C)[nH]c(CN2CCC(N3CCC(c4ccc5[nH]c(-c6ccc(OC)c(OC)c6)c(CC)c5c4)CC3)CC2)c1C` [Example 127, ethyl 5-((4-(2-(3,4-dimethoxyphenyl)-3-ethyl-1H-indol-5-yl)-[1,4′-bipiperidin]-1′-yl)methyl)-2,4-dimethyl-1H-pyrrole-3-carboxylate], the IC50 (human TLR8) is reported as 345 nM and the IC50 (human TLR9) is reported as 267 nM.
`CCc1c(-c2ccc(OC)c(OC)c2)[nH]c2ccc(C3CCNCC3)cc12` [Example 122, 2-(3,4-dimethoxyphenyl)-3-ethyl-5-(piperidin-4-yl)-1H-indole] gave an IC50 (human TLR8) of 26 nM and an IC50 (human TLR9) of 1410 nM.
With `CCc1c(-c2ccc(OC)c(OC)c2)[nH]c2ccc(C3CCN(C4CCN(C(C)C)CC4)CC3)cc12` [Example 151, 2-(3,4-dimethoxyphenyl)-3-ethyl-5-(1′-isopropyl-[1,4′-bipiperidin]-4-yl)-1H-indole] the IC50 (human TLR8) was 403 nM and the IC50 (human TLR9) was 556 nM.
With `CCc1c(-c2ccc(OC)c(OC)c2)[nH]c2ccc(C3CCN(C4CCN(CC(C)C)CC4)CC3)cc12` [Example 123, 2-(3,4-dimethoxyphenyl)-3-ethyl-5-(1′-isobutyl-[1,4′-bipiperidin]-4-yl)-1H-indole-di-trifluoroacetic acid] the IC50 (human TLR8) was 150 nM and the IC50 (human TLR9) was 170 nM.
